In US20150209384A1, “ORAL PREPARATION FOR PROMOTING EXPRESSION OF TGF-BETA, ORAL PREPARATION FOR INHIBITING PRODUCTION OF PAIN-MEDIATING SUBSTANCE, AND ORAL PREPARATION FOR PREVENTING EDEMA” (KEWPIE CORPORATION, priority 2012, published 2015):

Legend:
[1] = test system: rat carrageenan-induced inflammatory pain model; assay: Rat carrageenan-induced inflammatory pain model: paw edema, paw volume, exudate amount; assay type: in vivo; conditions: for exudate amount of the paw: FIG. 3; for paw edema: vs negative control (distilled water), hyaluronic acid 200 mg/kg/day by drinking for 4 weeks, ibuprofen 100 mg/kg oral 1 hour before induction, FIG. 1
Method: (§1) Rats (Wistar (SPF), male, four-weeks-old at the time of purchase, purchased from Japan SLC, Inc.) were acclimatized and fed for 7 days, and then grouped based on their body weights on the day before administration. The above-mentioned test solution was administered by drinking ad libitum for 4 weeks.
It should be noted that the 1% λ-carrageenan solution was stirred with a stirrer until immediately before use (induction). After that, a paw volume was measured using a paw volume measuring apparatus. In addition, blood was collected from the rat pain model under isoflurane anesthesia. After that, an exudate was collected from the hind paw, and the measurement of PGE2 and bradykinin in the exudate was performed.
The tuberal region of the pisiform bone outside the rat right hind paw was marked with marking ink so that volume measurement was uniform. Distilled water was charged up to a target water surface of a measuring chamber of the paw volume measuring apparatus. A measurer restrained the rat, and while lightly pressing the femoral region of the paw to be measured, put the paw at a position at which the mark leveled off and reached the target water surface. Then, a paw volume was recorded using a foot switch connected to the apparatus. It should be noted that the measurement of the paw volume was performed three times for each animal individual, and a mean thereof was determined.
Regarding a measured value for the paw volume, an amount of change Δ mL was determined from the following calculation equation for each individual animal, and a group mean and its standard error (SE) were calculated.
Amount of change A mL=Value at the time of each measurement after carrageenan administration−Value before (0 hours after) carrageenan administration
(§2) A 15-mL centrifugation tube, which had been measured for its tare weight in advance, was prepared, and a container having a 2-mL pipette tip cut at the tip in the centrifugation tube was prepared. The induced paw of the animal after the end of the blood collection was amputated from 1 cm above the malleolus using bone scissors or the like, and measured for its weight. The skin at the plantar site of the rat was deeply incised using a scalpel to make 2 incisions in a length direction by 4 incisions in a width direction which is perpendicular to the length direction. This paw skin tissue was placed with the toe down into the above-mentioned container, and cooling centrifugation was performed using a centrifugation machine at 3,000 rpm for 15 minutes to collect an exudate. In addition, in a non-treated group, the collection was performed from the left and right hind paws. The mass of the collected exudate was measured using an electrobalance. To the exudate after the end of the mass measurement were added 100 μL of 20 mM aspirin-containing physiological saline and 250 μL of 20 unit/mL heparin-containing physiological saline, the resultant was centrifuged, and then the supernatant was used as an exudate sample. In addition, the exudate was dispensed into a tube. The exudate sample was frozen with liquid nitrogen and cryopreserved until use.

bradykinin = assay: Measurement of bradykinin in paw exudate (EIA), rat carrageenan model; assay type: in vivo; conditions: for total amount of bradykinin in exudate: vs negative control, FIG. 5
Method: as §1, with “weeks. After the administration by drinking for 4 weeks, the rats were selected and grouped so that there was no difference in body weight between groups at the time of carrageenan induction (see Table 1), and then the rats were each used for a pain model to be described later.” for “weeks.”
(§3) A rat pain model was produced by subcutaneously injecting 0.1 mL of a 1% A-carrageenan (manufactured by SIGMA) solution into the plantar surface of the rat hind paw with reference to methods of Ohuchi et al. (Kazuo Ohuchi, “Seibutsu Yakkagaku Jikken Koza (Biological pharmaceutical science experimental course) (Vol. 12) Inflammation and Allergy I-1”, Chapter 1, foreign matter-induced inflammation model: pp. 30-51) and Masahiro Noguchi et al. (Masahiro Noguchi, et al: Enzymologic and pharmacologic profile of loxoprofen sodium and its metabolites. Biol. Pharm. Bull. 2005.28.2075-2079). It should be noted that the 1% λ-carrageenan solution was stirred with a stirrer until immediately before use (induction). After that, a paw volume was measured using a paw volume measuring apparatus. In addition, blood was collected from the rat pain model under isoflurane anesthesia. After that, an exudate was collected from the hind paw, and the measurement of PGE2 and bradykinin in the exudate was performed.
as §2
The measurement of bradykinin in the exudate was performed using “Bradykinin, EIA Kit, High Sensitivity, Bachem Americans.” The operations were performed in conformity with the accompanying protocol of the kit.

PGE2 = assay: Measurement of PGE2 in paw exudate (ELISA), rat carrageenan model; assay type: in vivo; conditions: vs negative control; for total amount of PGE2 in exudate: FIG. 7; for concentration of PGE2 in exudate: FIG. 8
Method: as §1, with “weeks. After the administration by drinking for 4 weeks, the rats were selected and grouped so that there was no difference in body weight between groups at the time of carrageenan induction (see Table 1), and then the rats were each used for a pain model to be described later.” for “weeks.”
as §3, §2
The measurement of PGE2 (ELISA) in the exudate was performed using “Prostaglandin E2 Kit-Monoclonal, ACE.” The operations were performed in conformity with the accompanying protocol of the kit.

[2] = test system: TGF-β1 mRNA in human colon adenocarcinoma-derived HT29 cells; assay: TGF-β expression promoting action in HT29 cells (TGF-β1 mRNA, real-time PCR); assay type: cell-based; conditions: hyaluronic acid 0.01 mg/ml, LPS 200 ng/mL added 1 hour later, 24 hours after addition of hyaluronic acid, control = 1, FIG. 11
Method: In order to confirm the TGF-β expression promoting action of hyaluronic acid in human colon adenocarcinoma-derived HT29 cells (purchased from DS Pharma Biomedical Co., Ltd.), the measurement of the production amount of TGF-β mRNA in the case of treating HT29 cells with hyaluronic acid was performed by the following method.
Hyaluronic acid was added to a culture supernatant, and 1 hour after that, a lipopolysaccharide (LPS) was added at a concentration of 200 ng/mL. 23 hours after that, mRNA of cells was collected, and the determination of TGF-β1 mRNA using real-time PCR equipment (Mx 3005, Agilent Technologies) was performed. First, cDNA was synthesized from mRNA by reverse transcription, and a PCR reaction was performed using the cDNA. That is, an amplification reaction involving repeating thermal denaturation (95° C., 10 seconds) and annealing (60° C., 20 seconds) 40 times was performed, and simultaneously, DNA amplification was measured by monitoring fluorescence from CybrGreen to be conjugated with DNA, and determination in the case of defining the mRNA amount of a control as 1 was performed. The human TGF-31 primers used were designed with the software Primer BLAST made available to the public by the National Center for Biotechnology Information (NCBI). Their sequences are 5′-[…]-3′ (Forward) and 5′-[…]-3′ (Reverse). […]

TGF-β1 = assay: Measurement of TGF-β1 in plasma (ELISA), rat carrageenan model; assay type: in vivo; conditions: 6 hours after carrageenan induction, FIG. 4
Method: as §1, with “weeks. After the administration by drinking for 4 weeks, the rats were selected and grouped so that there was no difference in body weight between groups at the time of carrageenan induction (see Table 1), and then the rats were each used for a pain model to be described later.” for “weeks.”
A rat pain model was produced by subcutaneously injecting 0.1 mL of a 1% A-carrageenan (manufactured by SIGMA) solution into the plantar surface of the rat hind paw with reference to methods of Ohuchi et al. (Kazuo Ohuchi, “Seibutsu Yakkagaku Jikken Koza (Biological pharmaceutical science experimental course) (Vol. 12) Inflammation and Allergy I-1”, Chapter 1, foreign matter-induced inflammation model: pp. 30-51) and Masahiro Noguchi et al. (Masahiro Noguchi, et al: Enzymologic and pharmacologic profile of loxoprofen sodium and its metabolites. Biol. Pharm. Bull. 2005.28.2075-2079). It should be noted that the 1% λ-carrageenan solution was stirred with a stirrer until immediately before use (induction). After that, a paw volume was measured using a paw volume measuring apparatus. […]

[3] = Measurement of concentration of hyaluronic acid in plasma; assay type: in vivo, rat
Method: as §1, with “weeks. After the administration by drinking for 4 weeks, the rats were selected and grouped so that there was no difference in body weight between groups at the time of carrageenan induction (see Table 1), and then the rats were each used for a pain model to be described later.” for “weeks.”
(§4) The rat pain model under anesthesia with isoflurane (manufactured by Mylan Pharmaceuticals, Inc.) was subjected to abdominal section, and blood was collected through the caudal vena cava of the abdomen. A 5-mL disposable injection syringe filled with heparin sodium (Wako Pure Chemical Industries, Ltd.) and a 22-G injection needle were used for the blood collection. Plasma was rapidly separated from the collected blood using a centrifuge, dispensed into a tube, and cryopreserved until use.
The measurement of the concentration of hyaluronic acid in plasma was performed using “Hyaluronan Assay Kit (Seikagaku Biobusiness Corporation).”
The concentrations of hyaluronic acid in plasma of the negative control (distilled water-administered group) and the test solution-administered group were measured. The concentrations of hyaluronic acid in plasma were measured before carrageenan induction and 6 hours and 8 hours after carrageenan induction.

IL-10 = assay: Measurement of IL-10 in plasma, rat carrageenan model; assay type: in vivo; conditions: oral hyaluronic acid 200 mg/kg/day 4 weeks
Method: as §1, with “weeks. After the administration by drinking for 4 weeks, the rats were selected and grouped so that there was no difference in body weight between groups at the time of carrageenan induction (see Table 1), and then the rats were each used for a pain model to be described later.” for “weeks.”
as §4
The measurement of IL-10 in plasma was performed using “Quantikine Rat IL-10 (R & D Systems, Inc.).” The operations were performed in conformity with the accompanying protocol of the kit.

[4] = 6 hours after carrageenan induction
[5] = 6 hours after carrageenan induction, vs negative control, hyaluronic acid 200 mg/kg/day 4 weeks, ibuprofen 100 mg/kg oral
[6] = 3 hours after carrageenan induction
[7] = 6 hours after carrageenan induction, vs negative control (distilled water), FIG. 6

Row | concentration of hyaluronic acid in plasma ([3]; 6 hours after carrageenan induction, FIG. 9) | concentration of hyaluronic acid in plasma ([3]; 8 hours after carrageenan induction, FIG. 9) | concentration of hyaluronic acid in plasma ([3]; before carrageenan induction, after continuous ingestion for 4 weeks (200 mg/kg/day), FIG. 9 left panel) | Compound | exudate amount of the paw ([1]; 3 hours after carrageenan induction, vs negative control, ibuprofen 100 mg/kg oral) | paw edema [1, 4] | exudate amount of the paw [1, 5] | total amount of bradykinin in exudate (bradykinin; [6]) | concentration of bradykinin in exudate (bradykinin; [7]) | total amount of bradykinin in exudate (bradykinin; [4]) | total amount of PGE2 in exudate (PGE2; [6]) | concentration of PGE2 in exudate (PGE2; [6]) | total amount of PGE2 in exudate (PGE2; [4]) | concentration of PGE2 in exudate (PGE2; [4]) | amount of TGF-β1 mRNA relative to control (no addition of hyaluronic acid) [2] [times] | paw volume ([1]; 6 hours after carrageenan induction, vs negative control, hyaluronic acid 200 mg/kg/day 4 weeks, ibuprofen 100 mg/kg oral, FIG. 2) | concentration of TGF-β in plasma compared to positive control (ibuprofen) (TGF-β1; same timing) | concentration of TGF-β in plasma (TGF-β1; hyaluronic acid 200 mg/kg/day 4 weeks) | concentration of bradykinin in exudate (bradykinin; 3 hours after carrageenan induction, vs distilled water group, FIG. 6) | concentration of bradykinin in exudate compared to positive control (ibuprofen) (bradykinin; 3 hours and 6 hours after carrageenan induction, FIG. 6) | increase in IL-10 in plasma (IL-10)
1 |  |  |  | CC(C)Cc1ccc(C(C)C(=O)O)cc1 (centres unmarked) [ibuprofen, reference compound] | significantly smaller than those in the negative control | milder than in the negative control | significantly smaller than those in the negative control | smaller than those in the negative control | significantly smaller concentration of bradykinin than that in the negative control | smaller than those in the negative control (statistically significant 6 hours after carrageenan induction) | smaller than those in the negative control | significantly smaller than those in the negative control | smaller than those in the negative control (statistically significant 6 hours after carrageenan induction) | significantly smaller than those in the negative control |  |  |  |  |  |  | 
2 |  |  |  | hyaluronic acid [listing 1 of 2 here] |  |  |  |  |  |  |  |  |  |  | 2.14 |  |  |  |  |  | 
3 | almost no change | almost no change | did not cause any change | hyaluronic acid [listing 2 of 2 here] |  | milder than in the negative control | smaller than that in the negative control |  | significantly smaller than those in the distilled water group | significantly smaller than that in the negative control |  |  | significantly smaller than that in the negative control | significantly smaller than that in the negative control |  | significantly smaller than that in the negative control | higher than the concentration of TGF-β in the positive control | increased remarkably | significantly smaller than those in the distilled water group | lower than those in the positive control | not observed
